Here are results for 9 compounds from US4218395A, “Ureylene naphthalene sulfonic acids” (American Cyanamid Company, priority 1978, dated 1980).

Experiment [1] has as its system hereditary angioneurotic edema. As to conditions: The New England Journal of Medicine, 286, 808-812 (1972); cited from earlier work.
In experiment [2] the test system is complement system. As to conditions: British Journal of Experimental Pathology, 33, 327-339 (1952); Clin. Exp. Immunol., 10, 127-138 (1972); cited from earlier work.
Experiment [3] addresses T1, human C1 (Homo sapiens, UniProt P09871).
T1 construct: hemolytic test of fluid-phase C2 destruction in presence of C4
Put plainly: Test, Code 026 (C1 inhibitor). It is filed as biochemical. As to conditions: activity in wells, twofold serial dilution assay; higher well number indicates higher activity. From the text:
(§1) An active inhibitor protects C2 from C1 and C4; (ii) Test, Code 035 (C3-C9 inhibitor)-This test determines the ability of the late components of human complement (C3-C9) to lyse EAC 142 in the presence of appropriate dilutions of the test compound. An active inhibitor protects EAC 142 from lysis by human C3-C9; (iii) Test, Code 036 (C-Shunt inhibitor)--In this test human erythrocytes rendered fragile are lysed in autologous serum via the shunt pathway activated by cobra venom factor in the presence of appropriate dilutions of the test compound. Inhibition of the shunt pathway results in failure of lysis; (iv) Forssman Vasculitis Test--Here, the well known complement dependent lesion, Forssman vasculitis, is produced in guinea pigs by intradermal injection of rabbit anti-Forssman antiserum. The lesion is measured in terms of diameter, edema and hemorrhage and the extent to which a combined index of these is inhibited by prior intraperitoneal injection of the test compound at 200 mg/kg is then reported, unless otherwise stated; (v) Forssman Shock Test--Lethal shock is produced in guinea pigs by an i.v. injection of anti-Forssman antiserum and the harmonic mean death time of treated guinea pigs is compared with that of simultaneous controls; (vi) Complement Level Reduction Test--In this test, the above dosed guinea pigs, or others, are bled for serum and the complement level is determined in undiluted serum by the capillary tube method of U.S. Pat. No. 3,876,376 and compared to undosed control guinea pigs; and (vii) Cap 50 Test--Here, appropriate amounts of the test compound are added to a pool of guinea pig serum in vitro, after which the undiluted serum capillary tube assay referred to above is run. The concentration of compound inhibiting 50% is reported.
(§2) With reference to Table I, guinea pigs weighing about 300 g were dosed intravenously (i.v.) or intraperitoneally (i.p.) with 200 mg/kg of the test compound dissolved in saline and adjusted to pH 7-8. […] Percent inhibition was calculated by comparison with simultaneous controls. […]

The test system of experiment [4] is late components of human complement (C3-C9). Put plainly: Test, Code 035 (C3-C9 inhibitor): lysis of EAC 142. The format is cell-based. As to conditions: activity in wells, twofold serial dilution assay; higher well number indicates higher activity.
From the text: as §1, §2

Experiment [5] concerns shunt pathway. Put plainly: Test, Code 036 (C-Shunt inhibitor): lysis of human erythrocytes via shunt pathway activated by cobra venom factor. It is filed as cell-based. As to conditions: activity in wells, twofold serial dilution assay; higher well number indicates higher activity.
From the text: as §1, §2

In experiment [6] the test system is whole complement. As to the kind of experiment: In vivo complement inhibition in dosed guinea pigs (whole complement, capillary tube assay). As to conditions: i.p., 200 mg/kg.
From the text: as §1
With reference to Table I, guinea pigs weighing about 300 g were dosed intravenously (i.v.) or intraperitoneally (i.p.) with 200 mg/kg of the test compound dissolved in saline and adjusted to pH 7-8. One hour after dosing, the guinea pigs were decapitated, blood was collected and the serum separated. The serum was tested for whole complement using the capillary tube assay. Percent inhibition was calculated by comparison with simultaneous controls. The results appear in Table I together with results of tests, code 026, 035, 036, Cap 50, % inhibition and Forssman shock.

Experiment [7] deals with human serum complement. As to conditions: as judged by the reduction in total hemolytic complement activity, Pathologie Biologie, 25, 33-36 (1977); cited from earlier work.
The subject of experiment [8] is human serum complement. As to conditions: as judged by the reduction in total hemolytic complement activity, Pathologie Biologie, 25, 33-36 (1977); cited from earlier work. The source holds these as a separate data set.

Counter-ions that a name gives are not always drawn.

T1 sequence (P09871 16-688): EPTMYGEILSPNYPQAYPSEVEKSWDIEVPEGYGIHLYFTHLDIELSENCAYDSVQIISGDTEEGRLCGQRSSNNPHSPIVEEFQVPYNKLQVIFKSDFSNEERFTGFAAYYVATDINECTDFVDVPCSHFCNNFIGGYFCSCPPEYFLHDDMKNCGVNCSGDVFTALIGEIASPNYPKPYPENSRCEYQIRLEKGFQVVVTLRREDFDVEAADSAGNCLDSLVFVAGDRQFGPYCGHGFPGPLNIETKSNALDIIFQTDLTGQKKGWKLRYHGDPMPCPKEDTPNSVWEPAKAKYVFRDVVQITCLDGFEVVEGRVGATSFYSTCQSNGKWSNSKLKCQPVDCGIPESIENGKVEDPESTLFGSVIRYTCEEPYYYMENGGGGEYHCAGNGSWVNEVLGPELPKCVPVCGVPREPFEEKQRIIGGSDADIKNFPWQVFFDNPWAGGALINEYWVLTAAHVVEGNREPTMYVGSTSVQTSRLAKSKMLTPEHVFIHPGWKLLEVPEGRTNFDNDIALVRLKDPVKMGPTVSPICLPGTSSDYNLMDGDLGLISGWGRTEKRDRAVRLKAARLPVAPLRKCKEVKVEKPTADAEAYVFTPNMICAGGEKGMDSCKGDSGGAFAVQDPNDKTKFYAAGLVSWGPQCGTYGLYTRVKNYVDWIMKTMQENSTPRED
T1 sequence (P00736 18-705 partner): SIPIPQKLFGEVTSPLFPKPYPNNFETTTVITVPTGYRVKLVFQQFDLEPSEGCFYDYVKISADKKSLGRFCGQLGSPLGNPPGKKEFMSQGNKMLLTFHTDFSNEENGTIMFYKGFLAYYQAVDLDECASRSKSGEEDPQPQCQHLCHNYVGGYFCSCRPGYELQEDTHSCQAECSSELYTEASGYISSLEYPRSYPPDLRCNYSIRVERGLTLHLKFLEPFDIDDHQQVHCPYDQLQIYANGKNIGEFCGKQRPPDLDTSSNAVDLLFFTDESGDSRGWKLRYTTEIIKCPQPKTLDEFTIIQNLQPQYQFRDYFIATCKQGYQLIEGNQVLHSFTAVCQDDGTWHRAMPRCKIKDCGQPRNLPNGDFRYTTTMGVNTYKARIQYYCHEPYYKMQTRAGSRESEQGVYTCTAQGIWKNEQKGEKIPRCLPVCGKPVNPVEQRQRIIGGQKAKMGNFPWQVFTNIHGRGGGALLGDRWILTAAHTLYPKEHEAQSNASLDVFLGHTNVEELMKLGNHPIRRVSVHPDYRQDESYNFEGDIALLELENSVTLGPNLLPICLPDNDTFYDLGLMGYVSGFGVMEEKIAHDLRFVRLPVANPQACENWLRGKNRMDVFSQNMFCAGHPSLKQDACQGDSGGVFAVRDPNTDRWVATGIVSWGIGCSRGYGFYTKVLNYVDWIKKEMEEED
T1 sequence (P02745 23-245 partner): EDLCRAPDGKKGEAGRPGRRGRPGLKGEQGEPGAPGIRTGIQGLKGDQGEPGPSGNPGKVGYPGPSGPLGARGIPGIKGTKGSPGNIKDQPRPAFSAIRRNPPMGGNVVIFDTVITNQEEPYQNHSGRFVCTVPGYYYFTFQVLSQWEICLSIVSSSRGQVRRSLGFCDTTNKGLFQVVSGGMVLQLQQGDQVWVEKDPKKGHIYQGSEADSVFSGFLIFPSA
T1 sequence (P02746 28-253 partner): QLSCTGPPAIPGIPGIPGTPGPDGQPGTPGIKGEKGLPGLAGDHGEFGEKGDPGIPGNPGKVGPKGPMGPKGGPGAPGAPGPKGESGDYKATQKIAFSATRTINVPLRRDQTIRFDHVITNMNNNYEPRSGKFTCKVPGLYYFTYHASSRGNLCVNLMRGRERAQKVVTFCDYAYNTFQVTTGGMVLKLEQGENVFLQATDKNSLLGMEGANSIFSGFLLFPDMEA
T1 sequence (P02747 29-245 partner): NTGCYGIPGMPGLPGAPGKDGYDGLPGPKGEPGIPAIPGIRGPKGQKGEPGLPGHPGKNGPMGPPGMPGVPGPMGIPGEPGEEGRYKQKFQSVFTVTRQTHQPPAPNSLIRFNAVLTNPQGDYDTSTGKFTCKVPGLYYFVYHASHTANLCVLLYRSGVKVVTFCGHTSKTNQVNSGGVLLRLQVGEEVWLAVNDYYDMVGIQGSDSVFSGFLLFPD

As for `NCCCCCC(=O)O` [epsilon-aminocaproic acid], in experiment [1], the “treatment of hereditary angioneurotic edema” value (“treatment” below) is on record as “used with success”.

Turning to `Cc1ccc(C(=O)Nc2ccc(S(=O)(=O)O)c3cc(S(=O)(=O)O)cc(S(=O)(=O)O)c23)cc1NC(=O)c1cccc(NC(=O)Nc2cccc(C(=O)Nc3cc(C(=O)Nc4ccc(S(=O)(=O)O)c5cc(S(=O)(=O)O)cc(S(=O)(=O)O)c45)ccc3C)c2)c1` [Suramin], the “effect on the complement system” value in experiment [2] is “competitive inhibitor of the complement system”. In addition, the “treatment” value in experiment [1] is on record as “used with success”.

On to `NC[C@H]1CC[C@H](C(=O)O)CC1` [tranexamic acid], for which the “treatment” value in experiment [1] is “used with success”.

On to `Cc1ccc(C(=O)Nc2ccc(S(=O)(=O)O)c3cc(S(=O)(=O)O)cc(S(=O)(=O)O)c23)cc1NC(=O)c1cc(NC(=O)Nc2cc(C(=O)Nc3cc(C(=O)Nc4ccc(S(=O)(=O)O)c5cc(S(=O)(=O)O)cc(S(=O)(=O)O)c45)ccc3C)cc(C(=O)Nc3cc(C(=O)Nc4ccc(S(=O)(=O)O)c5cc(S(=O)(=O)O)cc(S(=O)(=O)O)c45)ccc3C)c2)cc(C(=O)Nc2cc(C(=O)Nc3ccc(S(=O)(=O)O)c4cc(S(=O)(=O)O)cc(S(=O)(=O)O)c34)ccc2C)c1` [8,8',8",8'"-{Ureylenebis{s-phenenylbis[carbonylimino(4-methyl-3,1-phenylene)carbonylimino]}}tetra-1,3,5-naphthalenetrisulfonic acid dodecasodium salt], for which the “C1 026* Wells” value in experiment [3] was “+6 Wells”. For the same compound, the “C-Late 035* Wells” value in experiment [4] is recorded as “+3 Wells”. For the same compound, the “Shunt Inhibition 036* Wells” value in experiment [5] is listed as “+4 Wells”. Also, in experiment [6], the “In Vivo Activity (Guinea Pig) % Inhibition, Intraperitoneal, 30 minutes” value is -62%; the “In Vivo Activity (Guinea Pig) % Inhibition, Intraperitoneal, 60 minutes” value is -84%; the “In Vivo Activity (Guinea Pig) % Inhibition, Intraperitoneal, 120 minutes” value is recorded as -95%.

For `Nc1cc(C(=O)Nc2cc(C(=O)O)cc(C(=O)Nc3ccc(S(=O)(=O)O)c4cc(S(=O)(=O)O)cc(S(=O)(=O)O)c34)c2)cc(C(=O)Nc2cc(C(=O)O)cc(C(=O)Nc3ccc(S(=O)(=O)O)c4cc(S(=O)(=O)O)cc(S(=O)(=O)O)c34)c2)c1` [3,3'-[5-Amino-m-phenylenebis(carbonylimino)]bis{5-[4,6,8-trisulfo-1-naphthyl)carbamoyl]}benzoic acid hexasodium salt], in experiment [3], the “C1 026* Wells” value was “+4 Wells”. Moreover, the “C-Late 035* Wells” value in experiment [4] is “+2 Wells”. In experiment [5], the “Shunt Inhibition 036* Wells” value is on record as “+2 Wells”. For the same compound, in experiment [6], the “In Vivo Activity (Guinea Pig) % Inhibition, Intraperitoneal, 30 minutes” value is -40%; the “In Vivo Activity (Guinea Pig) % Inhibition, Intraperitoneal, 60 minutes” value was -61%; the “In Vivo Activity (Guinea Pig) % Inhibition, Intraperitoneal, 120 minutes” value is recorded as -61%.

Turning to pentosan-poly-sulfoester, the “anticomplementary activity on human serum in vitro” value in experiment [7] is reported as “anticomplementary activity”. In experiment [8], the “anticomplementary activity on human serum in vivo” value is reported as “anticomplementary activity”.

Take `Nc1ccc2cc(S(=O)(=O)O)cc(O)c2c1N=Nc1ccc(NC(=O)Nc2ccc(N=Nc3c(N)ccc4cc(S(=O)(=O)O)cc(O)c34)c(S(=O)(=O)O)c2)cc1S(=O)(=O)O` [chlorazol fast pink, 3,3'-ureylenebis-[6-(2-amino-8-hydroxy-6-sulfo-1-naphthylazo)]benzenesulfonic acid, tetrasodium salt]: in experiment [2], the “effect on the complement system” value is recorded as “anticomplementary effect”.

On to heparin, for which the “effect on the complement system” value in experiment [2] is listed as “anticomplementary effect”.

Regarding `O=C(Nc1cc(C(=O)Nc2cc(C(=O)O)cc(C(=O)Nc3ccc(S(=O)(=O)O)c4cc(S(=O)(=O)O)cc(S(=O)(=O)O)c34)c2)cc(C(=O)Nc2cc(C(=O)O)cc(C(=O)Nc3ccc(S(=O)(=O)O)c4cc(S(=O)(=O)O)cc(S(=O)(=O)O)c34)c2)c1)Nc1cc(C(=O)Nc2cc(C(=O)O)cc(C(=O)Nc3ccc(S(=O)(=O)O)c4cc(S(=O)(=O)O)cc(S(=O)(=O)O)c34)c2)cc(C(=O)Nc2cc(C(=O)O)cc(C(=O)Nc3ccc(S(=O)(=O)O)c4cc(S(=O)(=O)O)cc(S(=O)(=O)O)c34)c2)c1` [3,3',3",3'"-{Ureylenebis[s-phenenylbis(carbonylimino]}tetrakis[5-(4,6,8-trisulfo-1-naphthyl)carbamoyl]benzoic acid dodecasodium salt], the “C1 026* Wells” value in experiment [3] was “+7 Wells”. The “C-Late 035* Wells” value in experiment [4] is reported as “+2 Wells”. In experiment [5], the “Shunt Inhibition 036* Wells” value is recorded as “+5 Wells”. For the same compound, in experiment [6], the “In Vivo Activity (Guinea Pig) % Inhibition, Intraperitoneal, 30 minutes” value is given as -90%; the “In Vivo Activity (Guinea Pig) % Inhibition, Intraperitoneal, 60 minutes” value was -94%; the “In Vivo Activity (Guinea Pig) % Inhibition, Intraperitoneal, 120 minutes” value was -89%.
